One substance from US20160017273A1, “SPERM SELECTION UNIT STRUCTURE, SPERM SCREENING DEVICE PROVIDED WITH SPERM SELECTION UNIT STRUCTURE, AND METHOD OF PREPARING SEMEN FOR FERTILIZATION” (NATIONAL INSTITUTE OF ADVANCED INDUSTRIAL SCIENCE AND …, priority 2013, published 2016) can be followed below.

This test has as its system sperm of thawed frozen semen. The test can be described thus: ratio between X sperm and Y sperm (real time PCR) in semen recovered by the sperm screening device after the sperm preservation step with a phenoxazine compound. Format: cell-based, Holstein cattle. To be noted: 25 μM brilliant cresyl blue + 5 mM glucose-6-phosphate, no electron accepting substance added, 5% CO2. As for the experimental part:
Frozen semen of WHO OCEANIC JOVIAN ET (Holstein cattle) was thawed in accordance with the predetermined steps, 200 μl of thawed semen was sampled and was put into a tube having a capacity of 1.5 ml. Then, semen was subjected to the centrifugal separation (7 minutes, 2000 rpm), and a half of supernatant of the semen after being subjected to the centrifugal separation was thrown away and approximately 1004 of semen was left in the tube.
An approximately 100 μL of buffer solution (obtained by adding 6 mg/mL BSA+10 μg/mL of gentamycin+5 mM EGTA to the commercially available “SP-TALP” solution) is added into the tube, the buffer solution is stirred lightly and, thereafter, the buffer solution was incubated for 50 minutes at 37° with 5% CO2.
Next, the tube was subjected to the centrifugal separation again (7 minutes, 2000 rpm), and a supernatant of the solution was thrown away, and an approximately 100 μL of buffer solution (obtained by adding 6 mg/mL BSA+10 […] to the commercially available “SP-TALP” solution; not containing EGTA) was added into the tube and, thereafter, the solution was stirred lightly.
The tube was subjected to the centrifugal separation again (7 minutes, 2000 rpm), and 100 μL of a supernatant of the solution was thrown away, and an approximately 100 μL of buffer solution (obtained by adding 6 mg/mL BSA+10 μg/mL gentamycin +25 μM brilliant cresyl blue +5 mM glucose-6-phosphate to the commercially available “SP-TALP” solution) was added into the tube and, thereafter, the solution was incubated at 37° C. with 5% CO2 (sperm preservation step). […]
Thereafter, sperm having high motility were recovered by using the sperm screening device according to this embodiment. Then, with respect to the acquired semen for artificial insemination, a ratio between X sperm and Y sperm was investigated using a real time PCR method.
A general note: Real-time PCR tracks product formation cycle by cycle.

Setting [1] is: incubation 30 minutes at 37° C.
Setting [2] is: incubation 50 minutes at 37° C.

Take brilliant cresyl blue: the “ratio of X sperm” value is reported as 39% under setting [1] and 35% under setting [2]. Besides, the “ratio of Y sperm” value runs as follows: under setting [1], 61%; under setting [2], 65%.
